These results are taken from patent US10570148B2, “N-alkyl-2-phenoxyethanamines, their preparation and use” (The Trustees of Columbia University In the City of New York, priority 2013, dated 2020).

Each structure is given as a SMILES string.

For series [1] the following is noted: in vivo; cited from earlier work.
For series [2], the target named is T1, RBP4 (Homo sapiens, UniProt P02753). As to conditions: cited from earlier work.
The test system of series [3] is retinal pigment epithelium cells. The settings on record: many cell types, including the retinal pigment epithelium cells; cited from earlier work.
In a further series the test system is mice. As to conditions: cited from earlier work.
A further series has as its system Abca4−/− mice. The settings on record: cited from earlier work.
Series [4] addresses T2, RBP4-TTR interaction (Homo sapiens, UniProt P02753). As to conditions: cited from earlier work.
The target of series [5] is T1, RBP4. As to the kind of experiment: Scintillation proximity RBP4 binding assay (SPA). As to conditions: analogs, present-tense paper example. Further details: Untagged human RBP4 purified from urine of tubular proteinuria patients; purchased Fitzgerald Industries International; host or cells: urine of tubular proteinuria patients. As for the experimental part: Scintillation Proximity RBP4 Binding Assay
Untagged human RBP4 purified from urine of tubular proteinuria patients was purchased from Fitzgerald Industries International. It was biotinylated using the EZ-Link Sulfo-NHS-LC-Biotinylation kit from Pierce following the manufacturer's recommendations. Binding experiments were performed in 96-well plates (OptiPlate, PerkinElmer) in a final assay volume of 100 μl per well in SPA buffer (1×PBS, pH 7.4, 1 mM EDTA, 0.1% BSA, 0.5% CHAPS). The reaction mix contained 10 nM ^3H-Retinol (48.7 Ci/mmol; PerkinElmer), 0.3 mg/well Streptavidin-PVT beads, 50 nM biotinylated RBP4 and a test compound. Nonspecific binding was determined in the presence of 20 µM of unlabeled retinol. The reaction mix was assembled in the dark under dim red light. The plates were sealed with clear tape (TopSeal-A: 96-well microplate, PerkinElmer), wrapped in the aluminum foil, and allowed to equilibrate 6 hours at room temperature followed by overnight incubation at +4° C. Radiocounts were measured using a TopCount NXT counter (Packard Instrument Company).
Background: Scintillation proximity formats need no separation of bound from free tracer.

Series [6] concerns the target T2, RBP4-TTR interaction. As to the kind of experiment: TR-FRET (HTRF) assay for retinol-induced RBP4-TTR interaction. The series is classed as biochemical. Details: human RBP4 fragment (amino acids 19-201); host or cells: Gold(DE3)pLysS E. coli strain (Stratagene), pMAL-c4x vector. As to conditions: analogs, present-tense paper example. The source says:
TR-FPET Assay for Retinol-induced RBP4-TTR Interaction
Binding of a desired RBP4 antagonist displaces retinol and induces hindrance for RBP4-TTR interaction resulting in the decreased FRET signal (FIG. 7). Bacterially expressed MBP-RBP4 and untagged TTR were used in this assay. For the use in the TR-FRET assay the maltose binding protein (MBP)-tagged human RBP4 fragment (amino acids 19-201) was expressed in the Gold(DE3)pLysS E. coli strain (Stratagene) using the pMAL-c4x vector. Following cell lysis, recombinant RBP4 was purified from the soluble fraction using the ACTA FPLC system (GE Healthcare) equipped with the 5-ml the MBP Trap HP column. Human untagged TTR was purchased from Calbiochem. Untagged TTR was labeled directly with Eu^3+ Cryptate-NHS using the HTRF Cryptate Labeling kit from CisBio following the manufacturer's recommendations. HTRF assay was performed in white low volume 384 well plates (Greiner-Bio) in a final assay volume of 16 μl per well. The reaction buffer contained 10 mM Tris-HCl pH 7.5, 1 mM DTT, 0.05% NP-40, 0.05% Prionex, 6% glycerol, and 400 mM KF. Each reaction contained 60 nM […] and 2 nM TTR-Eu along with 26.7 nM of anti-MBP antibody conjugated with d2 (Cisbio). Titration of test compounds in this assay was conducted in the presence of 1 μM retinol. All reactions were assembled in the dark under dim red light and incubated overnight at +4° C. wrapped in aluminum foil. TR-FRET signal was measured in the SpectraMax M5e Multimode Plate Reader (Molecular Device). Fluorescence was excited at 337 nm and two readings per well were taken: Reading 1 for time-gated energy transfer from Eu(K) to d2 (337 nm excitation, […] emission, counting delay 75 microseconds, counting window 100 microseconds) and Reading 2 for Eu(K) time-gated fluorescence (337 nm excitation, 620 rum emission, counting delay 400 microseconds, counting window 400 microseconds). The TR-FRET signal was expressed as the ratio of fluorescence intensity: Flu665/Flu620×10,000.
(In TR-FRET formats the signal depends on donor and acceptor labels being close together.)

As a reminder, the melting point is the temperature, or range, at which the solid turns liquid. `CN(CCOc1ccccc1C(C)(C)C)C(=O)c1n[nH]c2ncccc12` [Compound 24, N-(2-(2-(Tert-butyl)phenoxy)ethyl)-N-methyl-1H-pyrazolo[3,4-b]pyridine-3-carboxamide] showed a melting point of 157 to 159 °C. Still for that read-out and setting: the value for `CN(CCOc1ccccc1C(C)(C)C)C(=O)c1n[nH]c2c1CN(S(C)(=O)=O)CC2` [Compound 30, N-(2-(2-(tert-butyl)phenoxy)ethyl)-N-methyl-5-(methylsulfonyl)-4,5,6,7-tetrahydro-1H-pyrazolo[4,3-c]pyridine-3-carboxamide] was 226 to 230 °C. Turning to `CC1=C(/C=C/C(C)=C/C=C/C(C)=C/C(=O)Nc2ccc(O)cc2)C(C)(C)CCC1` [fenretinide, N-(4-hydroxy-phenyl)retinamide], the “serum RBP4 and retinol” value in series [1] is “reduce serum RBP4 and retinol”. Also, at RBP4 [2], the “binding to RBP4” value is “bind to RBP4” and the “displacement of all-trans retinol from RBP4” value is recorded as “displace all-trans retinol from RBP4”. For the same molecule, in series [3], the induction of apoptosis entry is “extremely active inducer of apoptosis”. For the same molecule, in the series on mice, the formation of hemangiosarcomas result is given as “stimulate formation of hemangiosarcomas”. Further, the A2E production result in the series with Abca4−/− mice (Abca4−/− mice, animal model of excessive bisretinoid accumulation) was “reduced A2E production”. In the series on Abca4−/− mice (mouse, in vivo), the “ocular all-trans retinol uptake” value is listed as “inhibit ocular all-trans retinol uptake” and the visual cycle entry was “slow down the visual cycle”. For the same molecule, the “disruption of the RBP4-TTR interaction” value at RBP4-TTR interaction [4] was “disrupt the RBP4-TTR interaction”. Molecule `CN(CCOc1ccccc1C(C)(C)C)C(=O)c1c[nH]nn1` [Compound 12, N-(2-(2-(Tert-butyl)phenoxy)ethyl)-N-methyl-1H-1,2,3-triazole-5-carboxamide] had a melting point of 148 to 151 °C. As to `Cc1cc(C(=O)O)nc(N(C)CCOc2ccccc2C(C)(C)C)n1` [Compound 37, 2-((2-(2-(tert-butyl)phenoxy)ethyl)(methyl)amino)-6-methylpyrimidine-4-carboxylic acid], the “RBP4 binding (SPA)” value on RBP4 [5] was “bind to RBP4”. Further, the “antagonism of retinol-dependent RBP4-TTR interaction (HTRF)” value (“antagonism” below) on RBP4-TTR interaction [6] is “antagonize retinol-dependent RBP4-TTR interaction”. `CC(C)c1ccccc1OCCN(C)C(=O)Nc1ccccc1C(=O)O` [Compound 17, 2-(3-(2-(2-Isopropylphenoxy)ethyl)-3-methylureido)benzoic Acid]: the melting point lay in the range of 146 to 149 °C. On the same count and under the same terms, then `CN(CCOc1ccccc1C(C)(C)C)C(=O)c1n[nH]c2c1CCN(S(C)(=O)=O)C2` [Compound 33, N-(2-(2-(Tert-butyl)phenoxy)ethyl)-N-methyl-6-(methylsulfonyl)-4,5,6,7-tetrahydro-1H-pyrazolo[3,4-c]pyridine-3-carboxamide], with 233 to 237 °C. On the same count and under the same terms, then `CN1CCc2c(C(=O)N(C)CCOc3ccccc3C(C)(C)C)n[nH]c2C1` [Compound 34, N-(2-(2-(Tert-butyl)phenoxy)ethyl)-N,6-dimethyl-4,5,6,7-tetrahydro-1H-pyrazolo[3,4-c]pyridine-3-carboxamide], with 159 to 161 °C; and `CN(CCOc1ccccc1C(C)(C)C)C(=O)Nc1ccncc1C(=O)O` [Compound 18, 4-(3-(2-(2-(tert-butyl)phenoxy)ethyl)-3-methylureido)nicotinic Acid], with 218 to 220 °C. As for `Cc1cc(C(=O)O)nc(N(C)CCOc2cc(C(F)(F)F)cc(C(F)(F)F)c2)n1` [Compound 39, 2-((2-(3,5-bis(trifluoromethyl)phenoxy)ethyl)(methyl)amino)-6-methylpyrimidine-4-carboxylic acid], the “RBP4 binding (SPA)” value at RBP4 [5] was “bind to RBP4”. The “antagonism” value on RBP4-TTR interaction [6] is reported as “antagonize retinol-dependent RBP4-TTR interaction”.

In the case of `CN(CCOc1ccccc1C(C)(C)C)C(=O)C(=O)O` [Compound 13, 2-((2-(2-(Tert-butyl)phenoxy)ethyl)(methyl)amino)-2-oxoacetic Acid], the melting point lay within 98 to 101 °C. `CN(CCOc1ccccc1C(C)(C)C)C(=O)c1nnc2n1CCOC2` [Compound 25, N-(2-(2-(Tert-butyl)phenoxy)ethyl)-N-methyl-6,8-dihydro-5H-[1,2,4]triazolo[3,4-c][1,4]oxazine-3-carboxamide] registered a melting point of 116 to 120 °C. Turning to `COC(=O)c1cc(C)nc(N(C)CCOc2ccccc2C(C)(C)C)n1` [Compound 36, methyl 2-((2-(2-(tert-butyl)phenoxy)ethyl)(methyl)amino)-6-methylpyrimidine-4-carboxylate], at RBP4 [5], the “RBP4 binding (SPA)” value is listed as “bind to RBP4”. In addition, the “antagonism” value at RBP4-TTR interaction [6] is “antagonize retinol-dependent RBP4-TTR interaction”. For the molecule `CN(CCOc1ccccc1C(C)(C)C)C(=O)c1n[nH]c2c1CN(S(C)(=O)=O)C2` [Compound 28, N-(2-(2-(Tert-butyl)phenoxy)ethyl)-N-methyl-5-(methylsulfonyl)-1,4,5,6-tetrahydropyrrolo[3,4-c]pyrazole-3-carboxamide], the melting point was 125 to 133 °C.

The molecule `CN(CCOc1ccccc1C(C)(C)C)C(=O)c1cn2ncccc2n1` [Compound 23, N-(2-(2-(Tert-butyl)phenoxy)ethyl)-N-methylimidazo[1,2-b]pyridazine-2-carboxamide] yielded a melting point of 75 to 80 °C. Take `COC(=O)c1cc(C)nc(N(C)CCOc2cc(C(F)(F)F)cc(C(F)(F)F)c2)n1` [Compound 38, methyl 2-((2-(3,5-bis(trifluoromethyl)phenoxy)ethyl)(methyl)amino)-6-methylpyrimidine-4-carboxylate]: the “RBP4 binding (SPA)” value on RBP4 [5] is “bind to RBP4”. Further, the “antagonism” value at RBP4-TTR interaction [6] is on record as “antagonize retinol-dependent RBP4-TTR interaction”. Take `CN(CCOc1ccc(Cl)cc1C(C)(C)C)C(=O)c1cn2ncccc2n1` [Compound 21, N-(2-(2-(tert-butyl)-4-chlorophenoxy)ethyl)-N-methylimidazo[1,2-b]pyridazine-2-carboxamide]: the melting point was 73 to 78 °C. For the molecule `CN(CCOc1ccccc1C(C)(C)C)C(=O)c1n[nH]c2ccc(F)cc12` [Compound 22, N-(2-(2-(tert-butyl)phenoxy)ethyl)-5-fluoro-N-methyl-1H-indazole-3-carboxamide], the melting point lay within 186 to 190 °C.
